Test results published in patent US9133206B2, “Benzodiazepine and pyridodiazepine derivatives” (AbbVie Inc., priority 2010, dated 2015).

Test system: SK-N-SH human neuroblastoma cells
Experiment: Serum Deprivation/JC-1 Mitochondrial Membrane Potential (MMP) Assay
Assay type: cell-based
Conditions: Homo sapiens; for activation at 3 µM: single dose 3 μM, JC-1 ratio normalized to peak value for 10 μM dimebolin (n=2-4), read-out: JC-1 max % (@ 3 μM); for activation at 3 µM / Emax: serum deprivation; for EC50 / Emax: SK-N-SH; for EC50: 18 h, serum deprivation ~18 hours, JC-1 ratio normalized to peak value for 10 μM dimebolin, single curve fit to mean data of n=2-3; for Emax: percent maximal intensity in JC-1 ratio normalized to peak value for 10 μM dimebolin, read-out: JC-1 max %
In short: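 SK-N-SH cells serum-deprived ~18 h with compound, then stained with JC-1 for 40 min at 37 °C; red (560/595 nm) to green (485/535 nm) ratio reports membrane potential. Response normalized to peak from 10 μM dimebolin; EC50 from fit to mean of n=2–3, or single-dose 3 μM; DMSO ≤1%.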

Compound | activation at 3 µM [%] | EC50 [nM] | Emax [%]
CC(C)(C)CN1Cc2ccccc2N2CCN(Cc3ccccc3)CC2C1 (stereo not shown) [Example 141, 3-benzyl-6-(2,2-dimethylpropyl)-1,2,3,4,4a,5,6,7-octahydropyrazino[1,2-a][1,4]benzodiazepine] | 12 | – | –
Cc1ccsc1CN1Cc2ccccc2N2CCN(Cc3ccccc3)CC2C1 (stereo not shown) [Example 142, 3-benzyl-6-[(3-methyl-2-thienyl)methyl]-1,2,3,4,4a,5,6,7-octahydropyrazino[1,2-a][1,4]benzodiazepine] | 13 | – | –
CC(C)CCN1Cc2ccccc2N2CCN(Cc3ccccc3)CC2C1 (stereo not shown) [Example 143, 3-benzyl-6-(3-methylbutyl)-1,2,3,4,4a,5,6,7-octahydropyrazino[1,2-a][1,4]benzodiazepine] | 30 | – | –
c1ccc(CN2CCN3c4ccccc4CN(CC4CCCCC4)CC3C2)cc1 (stereo not shown) [Example 144, 3-benzyl-6-(cyclohexylmethyl)-1,2,3,4,4a,5,6,7-octahydropyrazino[1,2-a][1,4]benzodiazepine] | – | 3630 | 132
Cc1cccc(CN2Cc3ccccc3N3CCN(Cc4ccccc4)CC3C2)c1 (stereo not shown) [Example 145, 3-benzyl-6-(3-methylbenzyl),-1,2,3,4,4a,5,6,7-octahydropyrazino[1,2-a][1,4]benzodiazepine] | – | 3140 | 151
N#Cc1cccc(CN2Cc3ccccc3N3CCN(Cc4ccccc4)CC3C2)c1 (stereo not shown) [Example 146, 3-[(3-benzyl-1,2,3,4,4a,5-hexahydropyrazino[1,2-a][1,4]benzodiazepin-6(7H)-yl)methyl]benzonitrile] | – | 2200 | 182
c1ccc(CN2CCN3c4ccccc4CN(Cc4cccs4)CC3C2)cc1 (stereo not shown) [Example 147, 3-benzyl-6-(2-thienylmethyl)-1,2,3,4,4a,5,6,7-octahydropyrazino[1,2-a][1,4]benzodiazepine] | 1.7 | – | –
CC(C)CN1Cc2ccccc2N2CCN(Cc3ccccc3)CC2C1 (stereo not shown) [Example 148, 3-benzyl-6-isobutyl-1,2,3,4,4a,5,6,7-octahydropyrazino[1,2-a][1,4]benzodiazepine] | 38 | – | –
COCCN(C)C(=O)N1Cc2ccccc2N2CCN(Cc3ccccc3)CC2C1 (stereo not shown) [Example 149, 3-benzyl-N-(2-methoxyethyl)-N-methyl-1,2,3,4,4a,5-hexahydropyrazino[1,2-a][1,4]benzodiazepine-6(7H)-carboxamide] | 218 | – | –
O=C(NCCc1cccnc1)N1Cc2ccccc2N2CCN(Cc3ccccc3)CC2C1 (stereo not shown) [Example 150, 3-benzyl-N-[2-(pyridin-3-yl)ethyl]-1,2,3,4,4a,5-hexahydropyrazino[1,2-a][1,4]benzodiazepine-6(7H)-carboxamide] | 212 | – | –
O=C(NCCc1ccccn1)N1Cc2ccccc2N2CCN(Cc3ccccc3)CC2C1 (stereo not shown) [Example 151, 3-benzyl-N-[2-(pyridin-2-yl)ethyl]-1,2,3,4,4a,5-hexahydropyrazino[1,2-a][1,4]benzodiazepine-6(7H)-carboxamide] | – | 1800 | 163
O=C(NCCc1ccncc1)N1Cc2ccccc2N2CCN(Cc3ccccc3)CC2C1 (stereo not shown) [Example 152, 3-benzyl-N-[2-(pyridin-4-yl)ethyl]-1,2,3,4,4a,5-hexahydropyrazino[1,2-a][1,4]benzodiazepine-6(7H)-carboxamide] | – | 3080 | 239
N#CCCN(C(=O)N1Cc2ccccc2N2CCN(Cc3ccccc3)CC2C1)C1CC1 (stereo not shown) [Example 153, 3-benzyl-N-(2-cyanoethyl)-N-cyclopropyl-1,2,3,4,4a,5-hexahydropyrazino[1,2-a][1,4]benzodiazepine-6(7H)-carboxamide] | 68 | – | –
NCCc1cn(C(=O)N2Cc3ccccc3N3CCN(Cc4ccccc4)CC3C2)cn1 (stereo not shown) [Example 154, [4-(2-aminoethyl)-1H-imidazol-1-yl](3-benzyl-1,2,3,4,4a,5-hexahydropyrazino[1,2-a][1,4]benzodiazepin-6(7H)-yl)methanone] | 49 | – | –
O=C(NCc1ccncc1)N1Cc2ccccc2N2CCN(Cc3ccccc3)CC2C1 (stereo not shown) [Example 155, 3-benzyl-N-(pyridin-4-ylmethyl)-1,2,3,4,4a,5-hexahydropyrazino[1,2-a][1,4]benzodiazepine-6(7H)-carboxamide] | 75 | – | –
Cc1ccc(CNC(=O)N2Cc3ccccc3N3CCN(Cc4ccccc4)CC3C2)o1 (stereo not shown) [Example 156, 3-benzyl-N-[(5-methyl-2-furyl)methyl]-1,2,3,4,4a,5-hexahydropyrazino[1,2-a][1,4]benzodiazepine-6(7H)-carboxamide] | – | 2400 | 152
CCN(CCOC)C(=O)N1Cc2ccccc2N2CCN(Cc3ccccc3)CC2C1 (stereo not shown) [Example 157, 3-benzyl-N-ethyl-N-(2-methoxyethyl)-1,2,3,4,4a,5-hexahydropyrazino[1,2-a][1,4]benzodiazepine-6(7H)-carboxamide] | 264 | – | –

Compound | activation at 3 µM [%] | EC50 [nM] | Emax [%]
CCN(CC)C(=O)N1Cc2ccccc2N2CCN(Cc3ccccc3)CC2C1 (stereo not shown) [Example 158, 3-benzyl-N,N-diethyl-1,2,3,4,4a,5-hexahydropyrazino[1,2-a][1,4]benzodiazepine-6(7H)-carboxamide] | – | 1020 | 181
O=C(Nc1nccs1)N1Cc2ccccc2N2CCN(Cc3ccccc3)CC2C1 (stereo not shown) [Example 159, 3-benzyl-N-(1,3-thiazol-2-yl)-1,2,3,4,4a,5-hexahydropyrazino[1,2-a][1,4]benzodiazepine-6(7H)-carboxamide] | 64 | – | –
O=C(NCC1CC1)N1Cc2ccccc2N2CCN(Cc3ccccc3)CC2C1 (stereo not shown) [Example 160, 3-benzyl-N-(cyclopropylmethyl)-1,2,3,4,4a,5-hexahydropyrazino[1,2-a][1,4]benzodiazepine-6(7H)-carboxamide] | – | 645 | 245
CC(C)N1CCN(C(=O)N2Cc3ccccc3N3CCN(Cc4ccccc4)CC3C2)CC1 (stereo not shown) [Example 161, (3-benzyl-1,2,3,4,4a,5-hexahydropyrazino[1,2-a][1,4]benzodiazepin-6(7H)-yl)(4-isopropylpiperazin-1-yl)methanone] | – | 3180 | 218
CC(C)CNC(=O)N1Cc2ccccc2N2CCN(Cc3ccccc3)CC2C1 (stereo not shown) [Example 162, 3-benzyl-N-isobutyl-1,2,3,4,4a,5-hexahydropyrazino[1,2-a][1,4]benzodiazepine-6(7H)-carboxamide] | 194 | – | –
O=C(NCc1cccnc1)N1Cc2ccccc2N2CCN(Cc3ccccc3)CC2C1 (stereo not shown) [Example 163, 3-benzyl-N-(pyridin-3-ylmethyl)-1,2,3,4,4a,5-hexahydropyrazino[1,2-a][1,4]benzodiazepine-6(7H)-carboxamide] | 183 | – | –
CN(C)CCCNC(=O)N1Cc2ccccc2N2CCN(Cc3ccccc3)CC2C1 (stereo not shown) [Example 164, 3-benzyl-N-[3-(dimethylamino)propyl]-1,2,3,4,4a,5-hexahydropyrazino[1,2-a][1,4]benzodiazepine-6(7H)-carboxamide] | 93 | – | –
CCCCN(CC#N)C(=O)N1Cc2ccccc2N2CCN(Cc3ccccc3)CC2C1 (stereo not shown) [Example 165, 3-benzyl-N-butyl-N-(cyanomethyl)-1,2,3,4,4a,5-hexahydropyrazino[1,2-a][1,4]benzodiazepine-6(7H)-carboxamide] | 251 | – | –
COCCCNC(=O)N1Cc2ccccc2N2CCN(Cc3ccccc3)CC2C1 (stereo not shown) [Example 166, 3-benzyl-N-(3-methoxypropyl)-1,2,3,4,4a,5-hexahydropyrazino[1,2-a][1,4]benzodiazepine-6(7H)-carboxamide] | – | 765 | 181
COCCNC(=O)N1Cc2ccccc2N2CCN(Cc3ccccc3)CC2C1 (stereo not shown) [Example 167, 3-benzyl-N-(2-methoxyethyl)-1,2,3,4,4a,5-hexahydropyrazino[1,2-a][1,4]benzodiazepine-6(7H)-carboxamide] | 63 | – | –
O=C(NCc1ccccn1)N1Cc2ccccc2N2CCN(Cc3ccccc3)CC2C1 (stereo not shown) [Example 168, 3-benzyl-N-(pyridin-2-ylmethyl)-1,2,3,4,4a,5-hexahydropyrazino[1,2-a][1,4]benzodiazepine-6(7H)-carboxamide] | 259 | – | –
O=C(NC1CCC1)N1Cc2ccccc2N2CCN(Cc3ccccc3)CC2C1 (stereo not shown) [Example 169, 3-benzyl-N-cyclobutyl-1,2,3,4,4a,5-hexahydropyrazino[1,2-a][1,4]benzodiazepine-6(7H)-carboxamide] | – | 816 | 173
CCCN(C)C(=O)N1Cc2ccccc2N2CCN(Cc3ccccc3)CC2C1 (stereo not shown) [Example 170, 3-benzyl-N-methyl-N-propyl-1,2,3,4,4a,5-hexahydropyrazino[1,2-a][1,4]benzodiazepine-6(7H)-carboxamide] | 273 | – | –
O=C(N1CCCCC1)N1Cc2ccccc2N2CCN(Cc3ccccc3)CC2C1 (stereo not shown) [Example 171, (3-benzyl-1,2,3,4,4a,5-hexahydropyrazino[1,2-a][1,4]benzodiazepin-6(7H)-yl)(piperidin-1-yl)methanone] | – | 2450 | 251
O=C1C2CNCCN2c2ccccc2CN1CC1CC1 (stereo not shown) [Example 172, 6-(cyclopropylmethyl)-2,3,4,4a,6,7-hexahydropyrazino[1,2-a][1,4]benzodiazepin-5(1H)-one] | 0 | – | –
CN1CCN2c3ccccc3CN(C3CCN(C(=O)c4ccccc4)CC3)CC2C1 (stereo not shown) [Example 173, [4-(3-methyl-1,2,3,4,4a,5-hexahydropyrazino[1,2-a][1,4]benzodiazepin-6(7H)-yl)piperidin-1-yl](phenyl)methanone] | 68 | – | –
CN1CCN2c3ccccc3CN(C(=O)c3ccccc3Cl)CC2C1 (stereo not shown) [Example 174, (2-chlorophenyl)(3-methyl-1,2,3,4,4a,5-hexahydropyrazino[1,2-a][1,4]benzodiazepin-6(7H)-yl)methanone] | 41 | – | –
